Test results as given in the supplement of paper PMC8671470.

Assays:
Settings in all cases: 72 h
[1] = test system: HL-60; assay: cell viability (% survival relative to DMSO control); higher = less cytotoxic
Method in brief: (§1)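 HL-60 cells grown in RPMI 1640 with 10% FBS were rescreened against the full library in 384-well plates, in duplicate, at five tenfold concentrations from 1 to 10,000 nM, alongside DMSO or 100 nM of one of three metabolic inhibitors for 72 h at 37 °C, 5% CO2. Reference wells contained DMSO or 10 μM proteasome inhibitor. Viability was read with CellTiter-Glo and normalised to these reference wells, and where reported, area under the curve was taken from four-parameter log-logistic fits in drc and PharmacoGx.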

[2] = test system: HL-60; assay: area under dose-response curve (viability, 1 nM-10 uM) (fraction (0-1)); higher = more sensitive
Method in brief: as §1

[3] = test system: myeloid leukemia patient primary cells Pat.10; assay: cell viability (% survival relative to DMSO control); higher = less cytotoxic
Method in brief: (§2)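 Mononuclear cells from patients with AML or CML were thawed, purified on Ficoll and placed in RPMI 1640 with 10% FBS at 10,000 cells/well on 384-well plates. The plates came pre-printed with 70 compounds at five tenfold concentrations spanning 1–10,000 nM, in duplicate, and cells were exposed for 72 h. CellTiter-Glo gave viability, scaled between DMSO wells and wells with 10 μM proteasome inhibitor. Where reported, area under the curve was obtained from log-logistic fits with four parameters using the drc and PharmacoGx R packages.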

[4] = test system: myeloid leukemia patient primary cells Pat.15; assay: as above
Method in brief: as §2

[5] = test system: myeloid leukemia patient primary cells Pat.2; assay: as above
Method in brief: as §2

[6] = test system: myeloid leukemia patient primary cells Pat.11; assay: as above
Method in brief: as §2

[7] = test system: myeloid leukemia patient primary cells Pat.9; assay: as above
Method in brief: as §2

[8] = test system: myeloid leukemia patient primary cells Pat.6; assay: as above
Method in brief: as §2

[9] = test system: myeloid leukemia patient primary cells Pat.4; assay: as above
Method in brief: as §2

[10] = test system: myeloid leukemia patient primary cells Pat.8; assay: as above
Method in brief: as §2

[11] = test system: myeloid leukemia patient primary cells Pat.5; assay: as above
Method in brief: as §2

[12] = test system: myeloid leukemia patient primary cells Pat.12; assay: as above
Method in brief: as §2

[13] = test system: myeloid leukemia patient primary cells Pat.3; assay: as above
Method in brief: as §2

[14] = test system: myeloid leukemia patient primary cells Pat.13; assay: as above
Method in brief: as §2

[15] = test system: myeloid leukemia patient primary cells Pat.1; assay: as above
Method in brief: as §2

[16] = test system: myeloid leukemia patient primary cells Pat.14; assay: as above
Method in brief: as §2

[17] = test system: myeloid leukemia patient primary cells Pat.7; assay: as above
Method in brief: as §2

O=c1cc(N2CCOCC2)oc2c(-c3ccccc3)cccc12
cell viability [%], [1]
Settings	0.001 µM	0.01 µM	0.1 µM	1 µM	10 µM
co-treatment: AZD3965 100 nM	99.5	101	103.3	100	75.2
co-treatment: DMSO vehicle	99.2	100	102	91.6	86
co-treatment: GSK2194069 100 nM	107	101.4	105	99.4	84
co-treatment: pictilisib 100 nM	110	104	103	92.2	79.6

Settings	area under dose-response curve, co-treatment: AZD3965 100 nM	area under dose-response curve, co-treatment: GSK2194069 100 nM	area under dose-response curve, co-treatment: pictilisib 100 nM	cell viability, 1 nM [%]	cell viability, 10 nM [%]	cell viability, 100 nM [%]	cell viability, 1000 nM [%]	cell viability, 10000 nM [%]
[2]	< 0.0301	< 0.0301	0.058	–	–	–	–	–
[3]	–	–	–	31.3	46.9	78.1	50.8	22.6
[4]	–	–	–	77.5	> 100	97	81.7	10.2
[5]	–	–	–	92.1	87.9	99.7	91.1	67.2
[6]	–	–	–	88.7	94.2	96.7	91.1	65.2
[7]	–	–	–	63.7	15.2	77.7	54.8	12.5
[8]	–	–	–	91.8	82.3	93.2	97	68.3
[9]	–	–	–	78.8	98.5	86.1	63.1	14.4
[10]	–	–	–	88.3	86	92.4	67.1	61.5
[11]	–	–	–	47.8	0.265	70.4	58.3	< 0
[12]	–	–	–	91.4	98.3	92.6	97.4	92.4
[13]	–	–	–	96.2	37.6	92.2	80	61.6
[14]	–	–	–	88.7	95.7	83.6	91.4	45.6
[15]	–	–	–	77.8	83.5	78	63.6	27.5
[16]	–	–	–	86.4	56.8	91.1	77.9	58.3
[17]	–	–	–	84.4	64.8	94.8	92.1	80.5

O=C1C(SCCO)=C(SCCO)C(=O)c2ccccc21
cell viability [%], [1]
Settings	0.001 µM	0.01 µM	0.1 µM	1 µM	10 µM
co-treatment: AZD3965 100 nM	102	105	104	95.3	-0.491
co-treatment: DMSO vehicle	101	104.7	99.1	102	7.09
co-treatment: GSK2194069 100 nM	99.5	98.79	97.3	102	1.87
co-treatment: pictilisib 100 nM	107.4	104	95.6	75.46	-0.39

Settings	area under dose-response curve, co-treatment: AZD3965 100 nM	area under dose-response curve, co-treatment: DMSO vehicle	area under dose-response curve, co-treatment: GSK2194069 100 nM	area under dose-response curve, co-treatment: pictilisib 100 nM	cell viability, 1 nM [%]	cell viability, 10 nM [%]	cell viability, 100 nM [%]	cell viability, 1000 nM [%]	cell viability, 10000 nM [%]
[2]	0.139	0.114	0.125	0.192	–	–	–	–	–
[3]	–	–	–	–	29.3	> 100	60.9	35	> 100
[4]	–	–	–	–	82.6	89.3	63.2	2.59	0.4
[5]	–	–	–	–	93.1	> 100	97.1	55.8	0.14
[6]	–	–	–	–	96.1	91.4	99.8	7.63	0.114
[7]	–	–	–	–	1.27	95.1	28.7	< 0	< 0
[8]	–	–	–	–	77.1	> 100	99.3	71.1	< 0
[9]	–	–	–	–	76.4	89.5	> 100	3.28	2.39
[10]	–	–	–	–	74.2	70	95.1	65.4	0.0301
[11]	–	–	–	–	2.39	98.5	57.2	2.01	2.39
[12]	–	–	–	–	94.2	99.6	92	2.07	< 0
[13]	–	–	–	–	21.4	97.2	95.5	9.9	< 0
[14]	–	–	–	–	61.2	90.8	96.4	76.4	< 0
[15]	–	–	–	–	81.5	92.4	88.1	< 0	< 0
[16]	–	–	–	–	41.2	91.4	61.7	5.04	4.94
[17]	–	–	–	–	37.3	96.4	57.1	< 0	< 0

Cn1cc(-c2ccncc2)c(-c2ccc(OCc3ccc4ccccc4n3)cc2)n1
cell viability [%]
Settings	1 nM	10 nM	100 nM	1000 nM	10000 nM
[3]	95	65	78.5	44.2	54.7
[4]	94.3	84.7	97.6	83.1	75.2
[5]	94.2	94.8	98.5	77.3	80.2
[6]	99.1	98.1	> 100	87.9	99.3
[7]	62.4	36.5	32.9	3.45	11.7
[8]	94.1	88.2	95.8	73.5	68.8
[9]	93.5	82.6	90.3	85.4	97
[10]	81	89.1	93.4	74.4	83.6
[11]	26.3	1.33	18	0.265	< 0
[12]	98.4	97	> 100	82.3	87.9
[13]	91.6	90.2	> 100	48.8	29.9
[14]	88.2	87	87.9	70.8	53.5
[15]	82.2	91.2	97.1	73	73.6
[16]	82.6	86.8	86.7	50.1	43.4
[17]	90.5	73.5	82.7	17.1	32.4
